The values below come from patent publication US5633230A, “Treatment of cytomegalovirus infection” (priority 1994, dated 1997).

For one data set, the system named is CMV strain Davis. Particulars: MRC-5, plaque reduction, 24 h drug pretreatment. How it is done:
The following procedures were then used to determine inhibitory effects of AV-9 on the replication of CMV. First, confluent monolayers of the human diploid cell line, MRC-5 (ATCC# CCL 171) in 24 well cell culture plates were pretreated with specified concentrations (20 μM, 10 μM, 5 μM, 2.5 μM, 1.0 μM, 0.5 μM and 0.0 μM) of AV-9 for 24 hours. This was accomplished by diluting the stock peptide solution in growth medium (10% fetal bovine serum and 10 μg/ml gentamicin in Dulbecco's MEM (DMEM)) used to overlay the monolayers.
After pretreatment with AV-9, the monolayers were overlaid with 0.1 ml log10 dilutions of virus (CMV strain AD-169) ranging from 10^-1 to 10^-6. Virus was then allowed to adsorb for 1 hour at 37° C. The virus inoculum was removed and the monolayers were overlayed with DMEM containing 2% FBS, 10 ug/ml gentamicin and a specified concentration of AV-9. Virus was next allowed to replicate for 7 to 10 days until the plaques were judged to be well developed, and then the monolayers were fixed and stained with a solution of 1% crystal violet in 1% formaldehyde,70% ethanol. Finally, plaques (each representing a single viable virion) were counted and checked microscopically.
(§1) In a like manner, plaque reduction assays were also performed against other CMV strains and another CMV host, with comparison against ganciclovir (GCV) and foscarnet (FCV).

Another data set relates to CMV strain Towne. The class given is cell-based, human CMV. Particulars: HFF, plaque reduction, without 24 h drug pretreatment. How it is done:
The following procedures were then used to determine inhibitory effects of AV-9 on the replication of CMV. […] This was accomplished by diluting the stock peptide solution in growth medium (10% fetal bovine serum and 10 μg/ml gentamicin in Dulbecco's MEM (DMEM)) used to overlay the monolayers.
[…] Virus was then allowed to adsorb for 1 hour at 37° C. The virus inoculum was removed and the monolayers were overlayed with DMEM containing 2% FBS, 10 ug/ml gentamicin and a specified concentration of AV-9. Virus was next allowed to replicate for 7 to 10 days until the plaques were judged to be well developed, and then the monolayers were fixed and stained with a solution of 1% crystal violet in 1% formaldehyde,70% ethanol. Finally, plaques (each representing a single viable virion) were counted and checked microscopically.
as §1

A short description of data set [1]: blood levels after single subcutaneous injection of labelled compound. The class given is in vivo. The settings on record: mice. How it is done: Blood levels in mice resulting from single subcutaneous injection of a 53 μg dose of the labelled compound were also evaluated. […] Peak levels were maintained for about 20 minutes. At 40 minutes and 2 hours, blood levels had declined to about 80% of peak values. […] Evidently, the compound AV-9 reaches the bloodstream rapidly.

In a further data set the test system is HCMV strain AD-169. Nature of the data set: drug combination plaque reduction study (MacSynergy). In kind it is cell-based. The settings on record: human CMV-infected MRC-5 cells, plaque counts. How it is done:
For use in this study, HCMV strain AD-169 was obtained from the American Type Culture Collection, Rockville, Md. and ganciclovirresistant clinical isolate of HCMV, strain D16, was obtained from Kenneth D. Thompson, Loyola University Medical Center, Maywood, Ill. Host MRC-5 cells were cultured in a medium of Basal Medium Eagle (BME) (GIBCO), fetal bovine serum (FBS) (Hyclone Laboratories), 0.035% NaHCO3 and without antibiotics.
Test medium for dilution of virus and for preparation and dilution of compounds was Dulbecco's modified Eagle medium (DMEM), 2% FBS, 0.1% NaHCO3, 50 μg gentamicin/ml.
For drug combination experiments, each of AV-9, DHPG, foscarnet, and […] was prepared in test medium at double the highest concentration used. Each of these compound preparations was then diluted by serial 2-fold dilutions in test medium (except for AZT, which was diluted by serial half-log dilutions).
Growth medium was decanted from established monolayers of MRC-5 cells in 24-well tissue culture plates. Compound dilutions were placed in designated wells of the plates at 0.8 ml/well, with test medium only placed in virus control or cell control wells, and the plates were placed at 37° C. Four wells were used for each different compound dilution. After 24 hr of pre-treatment incubation, the medium was aspirated from each well of the plates. One ml of virus, diluted in test medium was placed in each well except those to be used for cell controls or those to be used for toxicity controls. One ml of sterile test medium was placed in each of these cell or toxicity control wells. The plates were centrifuged at 2200 rpm for 30 minutes at room temperature to allow the virus to adsorb. Medium was aspirated from each well of the plates. The proper individual compound concentrations or combinations were placed in test wells (0.8 ml/well, 4 wells/dilution) or in toxicity control wells. Test medium without compound was added (0.8 ml/well) to each cell control and virus control well. All plates were incubated at 37° C. in a moist atmosphere of 5% CO2, 95% air. […] After 15 minutes, the stain was removed, cells were rinsed in tap water until the water was clear, and the plates were inverted and dried at room temperature. Plaques were counted by use of a dissecting microscope. The plaque counts were entered in the MacSynergy™ program of Prichard and Shipman and 3-D plots were made.

The mark [2] stands for this setting: single s.c. injection, 53 μg labelled compound.

In general, IC50 refers to the concentration that inhibits the measured activity by half. For the molecule `CC(=O)N[C@H](CCCNC(=N)N)C(=O)N[C@H](CCCNC(=N)N)C(=O)N[C@H](CCCNC(=N)N)C(=O)N[C@H](CCCNC(=N)N)C(=O)N[C@H](CCCNC(=N)N)C(=O)N[C@H](CCCNC(=N)N)C(=O)N[C@H](CCCNC(=N)N)C(=O)N[C@H](CCCNC(=N)N)C(=O)N[C@H](CCCNC(=N)N)C(N)=O` [AV-9, acetyl-[D-Arg]9 -NH2], in the data set on CMV strain Davis, the IC50 stood at 2.3 µM. Besides, the half-maximal inhibitory concentration (IC50) in the data set with CMV strain Towne came out at 8.7 µM. In addition, the “blood level relative to peak values” in data set [1] (at 40 minutes and 2 hours, single s.c. 53 μg) is recorded as “about 80%”. Further, in data set [1] (at 4 hour, single s.c. 53 μg), the “blood level relative to peak” value is “about 10%”. Further, in data set [1] (at 8 hours and 24 hours, single s.c. 53 μg), the blood level entry is recorded as “threshold of detection”. Moreover, the “time near peak blood levels are maintained” value in data set [1] (single s.c. 53 μg, summary statement) was 20 to 120 min. In data set [1] (setting [2]), the near-peak blood level entry was “around 1 μg/ml”, the “time peak blood levels were maintained” value is “about 20 minutes” and the “time to near-peak blood levels following injection” value came out at 5 min. Moreover, in the data set with HCMV strain AD-169, the “antagonism in combination with phosphonoformic acid (foscarnet)” value is “insignificant amount of antagonism”, the “synergy in combination with AZT” value is recorded as “No synergy”, the “synergy in combination with DHPG” value is reported as “intense synergy” and the “synergy in combination with phosphonoformic acid (foscarnet)” value is on record as “moderate amount of synergy”.
